Like-named read-outs stand apart in the source and are kept apart here.
What was measured:
[1] = Pharmacokinetic interaction study, fexuprazan and celecoxib; format: in vivo, healthy Korean male subjects; conditions: 5 days; for T max,ss / Tmax: median [minimum–maximum]; for Tmax: T max,ss; for Vd/F: V ss/F
[2] = Safety and tolerability, adverse events, Cohort 1; format: in vivo, healthy Korean male subjects
[3] = Safety and tolerability, adverse events, Cohort 2; format: in vivo, healthy Korean male subjects
[4] = Safety and tolerability, adverse events, Cohort 3; format: in vivo, healthy Korean male subjects
[5] = for AUCτ,ss / C max,ss / MR, metabolic ratio of fexuprazan (AUCτ,M14/AUCτ,fexuprazan) / V ss/F / t 1/2 / T max,ss: 5 days; for AUCτ,ss / C max,ss / MR, metabolic ratio of fexuprazan (AUCτ,M14/AUCτ,fexuprazan) / V ss/F / t 1/2: mean ± SD; for T max,ss: median [minimum–maximum]
[6] = for T max: median [minimum–maximum]
[7] = cited from earlier work; for intra‐subject variability for the PK parameter (C max): NSAIDs, ref previously reported
[8] = test system: uptake or efflux transporters; conditions: cited from earlier work
[9] = test system: transporters; conditions: at the effective dose of 40 mg; cited from earlier work
[10] = cited from earlier work
[11] = test system: CYP2C9; conditions: CYP isoform 2C9; cited from earlier work
[12] = clinical; conditions: male, human, in vivo, po, 15 mg, T max,ss, 7 days, Arm E, median [minimum–maximum]
[13] = test system: CYP2D6; conditions: CYP isoform 2D6; cited from earlier work
[14] = combination: fexuprazan 40 mg BID + celecoxib 200 mg BID, Arm B, mean ± SD
[15] = monotherapy: fexuprazan 40 mg BID, Arm B (Cohort 1), mean ± SD
[16] = combination: fexuprazan 40 mg BID + naproxen 500 mg BID, Arm D
[17] = monotherapy: fexuprazan 40 mg BID, Arm D (Cohort 2)
[18] = combination: fexuprazan 40 mg BID + meloxicam 15 mg QD, 7 days, Arm F, mean ± SD
[19] = monotherapy: fexuprazan 40 mg BID, 5 days, Arm F (Cohort 3), mean ± SD

## CNCc1cn(S(=O)(=O)c2cccc(F)c2)c(-c2ccc(F)cc2F)c1OC [Fexuprazan]
[1]; [14]
  AUCτ,ss: 570.2 ± 255.7 ng·h/mL
  C max,ss: 71.3 ± 32.4 ng/mL
  MR, metabolic ratio of fexuprazan (AUCτ,M14/AUCτ,fexuprazan): 3.82 ± 2.72
  V ss/F: 1136.7 ± 730.7 L
  t 1/2: 8.5 ± 0.8 h
[1]; combination: fexuprazan 40 mg BID + celecoxib 200 mg BID, Arm B
  T max,ss: 2.5 [1.0–6.0] h
[1]; [15]
  AUCτ,ss: 555.3 ± 239.6 ng·h/mL
  C max,ss: 65.6 ± 30.1 ng/mL
  MR, metabolic ratio of fexuprazan (AUCτ,M14/AUCτ,fexuprazan): 3.56 ± 2.50
  V ss/F: 1203.2 ± 788.6 L
  t 1/2: 8.7 ± 1.2 h
[1]; monotherapy: fexuprazan 40 mg BID, Arm B (Cohort 1)
  T max,ss: 3.0 [1.0–6.0] h
[2]
  percentage of subjects with AEs: 33.3%
[3]
  Summary of AEs: number of events: six
  percentage of subjects with AEs: 33.3%
[4]
  Summary of AEs: number of events: eight
  percentage of subjects with AEs: 23.5%
[5]; [16]
  AUCτ,ss: 728.7 ± 463.2 ng·h/mL
  C max,ss: 89.2 ± 52.5 ng/mL
  MR, metabolic ratio of fexuprazan (AUCτ,M14/AUCτ,fexuprazan): 2.03 ± 1.25
  V ss/F: 808.9 ± 503.9 L
  t 1/2: 7.8 ± 1.1 h
  T max,ss: 3.0 [1.5–4.0] h
[5]; fexuprazan co-administered with naproxen vs fexuprazan alone
  increase in systemic exposure: approximately 20%
[5]; [17]
  AUCτ,ss: 591.7 ± 271.7 ng·h/mL
  C max,ss: 72.5 ± 37.0 ng/mL
  MR, metabolic ratio of fexuprazan (AUCτ,M14/AUCτ,fexuprazan): 2.65 ± 1.22
  V ss/F: 1028.6 ± 506.2 L
  t 1/2: 8.6 ± 0.9 h
  T max,ss: 2.5 [1.0–6.0] h
[6]; [18]
  AUCτ,ss: 674.7 ± 379.2 ng·h/mL
  C max,ss: 83.2 ± 46.2 ng/mL
  V ss/F: 1427.7 ± 1984.4 L
  t 1/2: 8.6 ± 2.1 h
[6]; combination: fexuprazan 40 mg BID + meloxicam 15 mg QD, 7 days, Arm F
  T max: 2.5 [1.5–4.0] h
[6]; [19]
  AUCτ,ss: 728.3 ± 403.5 ng·h/mL
  C max,ss: 82.8 ± 45.5 ng/mL
  MR, metabolic ratio of fexuprazan (AUCτ,M14/AUCτ,fexuprazan): 2.50 ± 1.64
  V ss/F: 1161.1 ± 1231.1 L
  t 1/2: 9.6 ± 2.2 h
[6]; monotherapy: fexuprazan 40 mg BID, 5 days, Arm F (Cohort 3)
  T max: 2.5 [1.5–8.0] h
[7]; fexuprazan
  elimination half‐life: 7.5 to 9.5 h
[8]
  substrate for uptake or efflux transporters: not a substrate
[9]
  potential for inhibitory effects on transporters: low potential
[10]; multiple doses for 7 days
  multiple dose with established safety and tolerability: up to 160 mg
[10]; single dose
  single dose with established safety and tolerability: up to 320 mg

## COc1ccc2cc([C@H](C)C(=O)O)ccc2c1 [Naproxen]
[7]
  intra‐subject variability for the PK parameter (C max): 8.4%

## Cc1cnc(NC(=O)C2=C(O)c3ccccc3S(=O)(=O)N2C)s1 [Meloxicam]
[11]
  inhibitory effect of NSAIDs on the CYP isoform: relatively weak inhibitor
[7]
  intra‐subject variability for the PK parameter (C max): 9.8%
[12]; combination: meloxicam 15 mg QD + fexuprazan 40 mg BID
  Tmax: 4.5 h
[12]; monotherapy: meloxicam 15 mg QD
  Tmax: 5 h

## Cc1ccc(-c2cc(C(F)(F)F)nn2-c2ccc(S(N)(=O)=O)cc2)cc1 [Celecoxib]
[1]; male, human, plasma, po, 200 mg, AUCτ,ss, combination: celecoxib 200 mg BID + fexuprazan 40 mg BID, Arm A, mean ± SD
  AUC: 8110 ± 2550 ng·h/mL
[1]; male, human, plasma, po, 200 mg, C max,ss, monotherapy: celecoxib 200 mg BID, Arm A, mean ± SD
  Cmax: 1080 ± 315 ng/mL
[1]; male, human, plasma, po, 200 mg, combination: celecoxib 200 mg BID + fexuprazan 40 mg BID, Arm A
  Tmax: 3 h
[1]; male, human, plasma, po, 200 mg, monotherapy: celecoxib 200 mg BID, Arm A
  Tmax: 2.5 h
[1]; male, human, plasma, po, 200 mg, combination: celecoxib 200 mg BID + fexuprazan 40 mg BID, Arm A, mean ± SD
  Vd/F: 358 ± 126 L
[1]; male, human, plasma, po, 200 mg, monotherapy: celecoxib 200 mg BID, Arm A, mean ± SD
  Vd/F: 416 ± 235 L
[1]; male, human, plasma, po, 200 mg, t 1/2, combination: celecoxib 200 mg BID + fexuprazan 40 mg BID, Arm A, mean ± SD
  half-life: 9.5 ± 3.3 h
[1]; male, human, plasma, po, 200 mg, t 1/2, monotherapy: celecoxib 200 mg BID, Arm A, mean ± SD
  half-life: 9.4 ± 5 h
[13]
  inhibitory effect of NSAIDs on the CYP isoform: moderate inhibitory effects
[7]
  intra‐subject variability for the PK parameter (C max): 31.8%
[7]; celecoxib
  elimination half‐life: 12.4 h

Reference: paper PMC11067709 (Clinical and Translational Science, 2024)
